From patent publication US8399486B2, “Benzenesulfonyl compounds and the use thereof” (Purdue Pharma L.P., priority 2007, dated 2013)

Columns and labels:
[1] = target: T1, N-type calcium channel (NTCC) (Homo sapiens, UniProt Q00975); test: FLIPR calcium mobilization assay for N-type calcium channel; type: cell-based; details: calcium mobilization in vitro assay, differentiated IMR32 cells, 90 mM KCl, 5 μM nitrendipine
T1 construct: endogenous in cells; host or cells: IMR32 cells (ATCC), differentiated with dibutyryl cAMP and bromodeoxyuridine
Procedure: Cell maintenance and differentiation. Unless noted otherwise, cell culture reagents were purchased from Mediatech of Herndon, Md. IMR32 cells (American Type Culture Collection, ATCC, Manassas, Va.) were routinely cultured in growth medium consisting of minimum essential medium containing 10% fetal bovine serum (FBS, Hyclone, Logan, Utah), 100 U/mL penicillin, 100 μg/mL streptomycin, 2 mM L-glutamine, 1 mM sodium pyruvate, and 1×MEM non-essential amino acids. 80-90% confluent flasks of cells were differentiated using the following differentiation medium: Growth medium plus 1 mM dibutyryl cyclic AMP (Sigma, St. Louis, Mo.), and 2.5 μM bromodeoxyuridine (Sigma). Cells were differentiated for 8 days by replacing differentiation medium every 2-3 days.
FLIPR Calcium Mobilization Assay for N-type Calcium Channel. One day prior to performing this assay, differentiated IMR32 cells were treated with 1× CellStripper, and seeded on poly-D-lysine-coated 96-well clear-bottom black plates (Becton Dickinson, Franklin Lakes, N.J.) at 200,000 cells/well. On the day of the assay, the cell plates were washed with IMR32 buffer (127 mM NaCl, 1 mM KCl, 2 mM MgCl2, 700 μM NaH2PO4, 5 mM CaCl2, 5 mM NaHCO3, 8 mM HEPES, 10 mM glucose, pH 7.4), then pre-stimulated with KCl and loaded as follows: 0.05 mL of IMR32 buffer, 0.05 mL of each compound tested diluted in IMR32 buffer containing 20 μM nitrendipine (Sigma), and 0.1 mL KCl dissolved in IMR32 buffer, plus Fluo-4 were added (3 μM final concentration, Molecular Probes, Eugene, Oreg.). Final test compound concentrations ranged from about 846 μM to about 17 μM, final nitrendipine concentration was 5 μM, and final KCl concentration was 90 mM. After 1 hour, the cells were washed twice with 0.05 mL of each compound tested in nitrendipine-containing IMR32 buffer (no KCl or Fluo-4), and then replaced with 0.1 mL of each compound tested in nitrendipine-containing IMR32 buffer. Plates were then transferred to a Fluorimetric Imaging Plate Reader (FLIPR^96, Molecular Devices, Inc., Sunnyvale, Calif.) for assay. The FLIPR measured basal Fluo-4 fluorescence for 315 seconds (i.e., 5 minutes and 15 seconds), then added 0.1 mL KCl agonist dissolved in IMR32 buffer and measured fluorescence for another 45 seconds. Final test compound concentrations on the cells after FLIPR read ranged from about 846 pM to about 17 μM, final nitrendipine concentration was 5 μM, and final KCl concentration was 90 mM. Data were collected over the entire time course and analyzed using Excel, Graph Pad Prism (version 3.02, Graph Pad, San Diego, Calif.), or an in-house non-linear regression analysis software.

[2] = target: T2, L-type calcium channel (LTCC) (Rattus norvegicus, UniProt P22002); test: FLIPR calcium mobilization assay for L-type calcium channel; type: cell-based; details: calcium mobilization in vitro assay, HEK293 cells expressing recombinant rat LTCC subunits (α1c, α2δ, β1), 90 mM KCl
T2 construct: expressed in transfected cells; pcDNA6.2DEST α1c, pcDNA3.2DEST β1, pcDNA3.1-Zeo α2δ)
Procedure: Recombinant human embryonal kidney cells (HEK293, ATCC) stably transfected with either N-type calcium channel (NTCC) subunits (α1b, α2δ, and β3) or L-type calcium channel (LTCC) subunits (α1c, α2δ, and β1) were routinely cultured in growth medium consisting of Dulbecco's Modified Eagles Medium containing 10% FBS, 100 U/mL penicillin, 100 μg/mL streptomycin, 4 mM L-glutamine, 500 μg/mL geneticin (G418), 20 μg/mL Blasticidin S (InVivogen, San Diego, Calif.) and 500 μg/mL zeocin (InVivogen).
FLIPR Calcium Mobilization Assay for L-type Calcium Channel. One day prior to performing this assay, HEK293 cells stably expressing recombinant rat L-type calcium channel (LTCC) subunits (α1c, α2δ, and β1) were trypsinized, then seeded on poly-D-lysine-coated 96-well clear-bottom black plates (Becton Dickinson, Franklin Lakes, N.J.) at 75,000 cells/well. On the day of the assay, the plates were washed with LTCC wash buffer (127 mM NaCl, 2 mM MgCl2, 700 μM NaH2PO4, 5 mM CaCl2, 5 mM NaHCO3, 8 mM HEPES, 10 mM glucose, pH 7.4), then loaded with 0.1 mL of LTCC wash buffer containing Fluo-4 (3 μM final concentration, Molecular Probes, Eugene, Oreg.). After 1 hour, the cells were washed with 0.1 mL LTCC wash buffer and resuspended in 0.05 mL LTCC assay buffer (same composition as LTCC wash buffer). Plates were then transferred to a FLIPR^96 for assay. The FLIPR measured basal Fluo-4 fluorescence for 15 seconds, then added 0.05 mL of each compound tested diluted in LTCC assay buffer at final concentrations ranging from about 846 pM to about 17 μM. Fluo-4 fluorescence was then measured for 5 minutes. 0.1 mL KCl agonist dissolved in LTCC assay buffer was then added to the cells to produce a final concentration of 90 mM KCl, and fluorescence was measured for another 45 seconds. Data were collected over the entire time course and analyzed using Excel, Graph Pad Prism, or an in-house regression analysis software.
L-type Recombinant Cell Line Development. L-type calcium channel expressing HEK-293 cells were created in two stages. Stage 1 was created as follows. The rat α1c, and β1 cDNA expression constructs (2.5 μg each) were co-transfected into human embryonic kidney (HEK-293) cells by Lipofectamine Plus reagent (Invitrogen), as per manufacturer's instructions. 24 hours later, cells were split in limiting dilution into multiple 96-well plates in selection media containing 20 μg/mL blasticidin and 500 μg/mL geneticin, and incubated for 3 weeks at 37° C., 5% CO2, 95% humidity. […] The FLIPR measured basal Fluo-4 fluorescence for 315 seconds, then added 0.1 mL KCl agonist dissolved in LTCC buffer and measured fluorescence for another 45 seconds. […] Data were collected over the entire time course and analyzed using Excel, Graph Pad Prism, or Activity Base software. […]

T1 sequence (Q00975 whole entry): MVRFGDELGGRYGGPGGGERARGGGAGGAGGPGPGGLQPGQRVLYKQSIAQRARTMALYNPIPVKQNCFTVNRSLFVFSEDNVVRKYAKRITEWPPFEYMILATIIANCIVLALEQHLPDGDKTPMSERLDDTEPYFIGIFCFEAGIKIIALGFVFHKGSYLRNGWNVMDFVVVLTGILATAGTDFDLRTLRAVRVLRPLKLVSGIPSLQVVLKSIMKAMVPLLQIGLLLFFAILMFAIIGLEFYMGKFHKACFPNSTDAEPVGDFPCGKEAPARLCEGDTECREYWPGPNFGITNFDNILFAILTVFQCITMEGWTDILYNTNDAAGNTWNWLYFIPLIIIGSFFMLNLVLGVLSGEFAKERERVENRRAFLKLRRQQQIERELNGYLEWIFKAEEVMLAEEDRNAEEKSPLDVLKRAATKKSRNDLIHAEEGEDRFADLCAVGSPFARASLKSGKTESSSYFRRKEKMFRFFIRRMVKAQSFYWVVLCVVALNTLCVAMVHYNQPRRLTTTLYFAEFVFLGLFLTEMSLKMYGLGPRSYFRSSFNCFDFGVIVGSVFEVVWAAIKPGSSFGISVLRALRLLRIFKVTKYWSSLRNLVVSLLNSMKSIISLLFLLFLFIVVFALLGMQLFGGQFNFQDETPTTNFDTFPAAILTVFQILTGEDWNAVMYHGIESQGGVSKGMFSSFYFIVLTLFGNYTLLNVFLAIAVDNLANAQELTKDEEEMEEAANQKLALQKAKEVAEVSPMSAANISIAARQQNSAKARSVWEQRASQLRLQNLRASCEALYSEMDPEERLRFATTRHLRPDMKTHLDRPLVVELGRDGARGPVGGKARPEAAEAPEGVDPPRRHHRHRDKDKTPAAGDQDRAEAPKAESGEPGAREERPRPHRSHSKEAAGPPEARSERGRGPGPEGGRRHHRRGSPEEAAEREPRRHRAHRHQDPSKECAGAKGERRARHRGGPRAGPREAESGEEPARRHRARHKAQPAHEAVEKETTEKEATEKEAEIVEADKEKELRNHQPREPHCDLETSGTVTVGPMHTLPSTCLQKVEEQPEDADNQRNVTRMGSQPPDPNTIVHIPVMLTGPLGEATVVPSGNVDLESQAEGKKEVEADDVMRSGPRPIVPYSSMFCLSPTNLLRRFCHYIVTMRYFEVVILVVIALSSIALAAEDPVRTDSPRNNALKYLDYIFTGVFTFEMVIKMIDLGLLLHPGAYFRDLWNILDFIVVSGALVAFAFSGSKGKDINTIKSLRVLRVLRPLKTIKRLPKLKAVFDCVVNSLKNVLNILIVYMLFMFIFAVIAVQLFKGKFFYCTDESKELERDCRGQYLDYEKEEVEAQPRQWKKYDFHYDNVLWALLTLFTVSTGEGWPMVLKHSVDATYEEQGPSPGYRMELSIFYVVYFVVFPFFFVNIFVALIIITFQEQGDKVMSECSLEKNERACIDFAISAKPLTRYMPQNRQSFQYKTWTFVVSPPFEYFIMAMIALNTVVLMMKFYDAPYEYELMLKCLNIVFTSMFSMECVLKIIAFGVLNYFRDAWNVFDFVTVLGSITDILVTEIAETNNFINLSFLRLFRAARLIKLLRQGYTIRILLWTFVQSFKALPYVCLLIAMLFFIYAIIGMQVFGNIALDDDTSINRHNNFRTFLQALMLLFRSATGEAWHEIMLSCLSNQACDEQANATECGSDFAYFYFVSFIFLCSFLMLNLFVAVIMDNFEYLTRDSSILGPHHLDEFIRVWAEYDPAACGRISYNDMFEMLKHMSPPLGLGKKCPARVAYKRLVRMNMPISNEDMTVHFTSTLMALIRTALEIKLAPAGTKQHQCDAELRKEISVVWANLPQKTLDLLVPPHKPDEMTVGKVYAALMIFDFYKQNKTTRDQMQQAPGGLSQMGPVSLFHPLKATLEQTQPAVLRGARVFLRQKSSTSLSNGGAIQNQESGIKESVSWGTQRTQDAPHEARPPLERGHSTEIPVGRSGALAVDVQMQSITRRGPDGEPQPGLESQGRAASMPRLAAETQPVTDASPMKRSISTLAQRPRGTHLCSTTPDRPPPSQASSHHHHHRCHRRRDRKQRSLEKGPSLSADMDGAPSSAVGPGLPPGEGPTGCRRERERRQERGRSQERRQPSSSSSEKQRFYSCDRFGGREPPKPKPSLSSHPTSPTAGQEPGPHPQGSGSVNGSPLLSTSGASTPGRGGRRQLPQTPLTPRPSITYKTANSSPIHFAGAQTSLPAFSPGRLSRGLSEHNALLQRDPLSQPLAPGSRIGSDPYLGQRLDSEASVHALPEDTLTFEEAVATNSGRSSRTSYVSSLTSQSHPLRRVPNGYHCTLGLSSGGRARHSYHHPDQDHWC
T1 sequence (P54289 25-956 partner limits assumed): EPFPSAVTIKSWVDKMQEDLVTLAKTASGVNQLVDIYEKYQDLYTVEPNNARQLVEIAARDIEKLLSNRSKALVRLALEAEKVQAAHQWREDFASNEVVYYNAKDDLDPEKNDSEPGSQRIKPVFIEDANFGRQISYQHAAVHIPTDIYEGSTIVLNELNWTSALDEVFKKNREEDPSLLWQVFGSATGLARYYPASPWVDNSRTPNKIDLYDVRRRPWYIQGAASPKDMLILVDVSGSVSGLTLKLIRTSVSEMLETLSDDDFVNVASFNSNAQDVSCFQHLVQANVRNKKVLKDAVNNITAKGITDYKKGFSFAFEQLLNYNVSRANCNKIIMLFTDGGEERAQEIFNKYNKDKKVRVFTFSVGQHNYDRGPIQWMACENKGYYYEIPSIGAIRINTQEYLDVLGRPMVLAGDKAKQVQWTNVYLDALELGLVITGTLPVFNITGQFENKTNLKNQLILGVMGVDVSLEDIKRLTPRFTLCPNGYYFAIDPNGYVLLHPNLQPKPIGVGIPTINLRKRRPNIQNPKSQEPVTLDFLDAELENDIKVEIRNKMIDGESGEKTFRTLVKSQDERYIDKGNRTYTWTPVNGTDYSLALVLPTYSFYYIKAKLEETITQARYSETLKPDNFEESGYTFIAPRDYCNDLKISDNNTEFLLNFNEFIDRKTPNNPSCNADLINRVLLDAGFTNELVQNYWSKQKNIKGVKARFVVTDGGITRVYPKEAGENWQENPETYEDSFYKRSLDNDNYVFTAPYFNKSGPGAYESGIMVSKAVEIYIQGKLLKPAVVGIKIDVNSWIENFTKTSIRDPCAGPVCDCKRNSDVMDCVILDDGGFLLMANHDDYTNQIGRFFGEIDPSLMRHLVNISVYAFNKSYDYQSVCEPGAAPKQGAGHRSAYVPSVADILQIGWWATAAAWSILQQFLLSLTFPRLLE
T1 sequence (P54289 957-1103 partner limits assumed): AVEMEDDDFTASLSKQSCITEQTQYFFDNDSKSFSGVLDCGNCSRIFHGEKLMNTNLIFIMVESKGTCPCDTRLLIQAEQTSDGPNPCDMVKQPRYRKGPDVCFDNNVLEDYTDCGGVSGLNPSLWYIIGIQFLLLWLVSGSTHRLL
T1 sequence (P54284 whole entry partner): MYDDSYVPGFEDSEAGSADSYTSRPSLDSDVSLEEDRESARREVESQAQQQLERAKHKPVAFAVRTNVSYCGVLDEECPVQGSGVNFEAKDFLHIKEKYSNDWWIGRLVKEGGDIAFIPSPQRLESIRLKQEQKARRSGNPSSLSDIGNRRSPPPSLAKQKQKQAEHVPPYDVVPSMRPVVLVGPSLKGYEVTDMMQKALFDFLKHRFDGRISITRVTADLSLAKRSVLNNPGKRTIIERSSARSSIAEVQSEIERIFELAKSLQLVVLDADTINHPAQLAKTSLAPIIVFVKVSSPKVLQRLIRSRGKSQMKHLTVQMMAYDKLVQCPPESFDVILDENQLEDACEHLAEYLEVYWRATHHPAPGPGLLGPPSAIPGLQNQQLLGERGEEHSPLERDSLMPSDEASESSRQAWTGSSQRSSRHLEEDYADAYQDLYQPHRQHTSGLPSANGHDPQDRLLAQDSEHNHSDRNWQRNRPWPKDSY

IC50 [1] | IC50 [2] | SMILES
0.46 µM | > 20 µM | O=C(CNC1CCN(S(=O)(=O)c2cccc(C(F)(F)F)c2)CC1)Nc1ccc(F)cc1 [Compound 6, N-(4-Fluorophenyl)-2-[1-(3-trifluoromethyl-benzenesulfonyl)-piperidin-4-ylamino]acetamide]
0.74 µM | > 20 µM | O=C(CNC1CCN(S(=O)(=O)c2cccc(C(F)(F)F)c2)CC1)Nc1cc(C(F)(F)F)cc(C(F)(F)F)c1 [Compound 18, N-(3,5-Bis-(trifluoromethyl)phenyl)-2-[1-(3-trifluoromethyl-benzenesulfonyl)piperidin-4-ylamino]acetamide]
0.79 µM | 9.33 µM | O=C(CN(C1CC1)C1CCN(S(=O)(=O)c2cccc(C(F)(F)F)c2)CC1)Nc1ccc(F)cc1 [Compound 14, 2-{Cyclopropyl-[1-(3-trifluoromethylbenzenesulfonyl)-piperidin-4-yl]amino}-N-(4-fluorophenyl)acetamide]
0.47 µM | 5.98 µM | O=C(CNC1CCN(S(=O)(=O)c2cccc(C(F)(F)F)c2)C1)Nc1ccc(F)cc1 (stereo not drawn) [Compound 10, N-(4-Fluorophenyl)-2-[1-(3-trifluoromethylbenzenesulfonyl)-pyrrolidin-3-ylamino]-acetamide]
1.29 µM |  | O=C(CC(=O)NC1CCN(S(=O)(=O)c2cccc(C(F)(F)F)c2)CC1)Nc1ccc(F)cc1F [Compound 23, N-(2,4-Difluorophenyl)-N′-[1-(3-trifluoromethylbenzenesulfonyl)-piperidin-4-yl]malonamide]
